One assay relates to cucumber downy mildew. In words: protectant activity in vivo against cucumber downy mildew. The following applies: Cucumis sativus, 168 h; for pest or weed control at 400 µg/mL: read-out: control effect against cucumber downy mildew (%), 400 mg/L.
The subject of the next assay is wheat powdery mildew. In words: protectant activity in vivo against wheat powdery mildew. The following applies: Triticum aestivum, 168 h; for pest or weed control at 6.25 µg/mL: read-out: control effect against wheat powdery mildew (%), 6.25 mg/L; for pest or weed control at 6.25 µg/mL / pest or weed control at 25 µg/mL / pest or weed control at 100 µg/mL / pest or weed control at 400 µg/mL / pest or weed control at 0.4 µg/mL / pest or weed control at 1.6 µg/mL: protectant activity; for pest or weed control at 25 µg/mL: read-out: control effect against wheat powdery mildew (%), 25 mg/L; for pest or weed control at 100 µg/mL: read-out: control effect against wheat powdery mildew (%), 100 mg/L; for pest or weed control at 400 µg/mL: read-out: control effect against wheat powdery mildew (%), 400 mg/L; for pest or weed control at 0.4 µg/mL: read-out: control effect against wheat powdery mildew (%), 0.4 mg/L; for pest or weed control at 1.6 µg/mL: read-out: control effect against wheat powdery mildew (%), 1.6 mg/L; for pest or weed control at 6.25 ppm: read-out: protectant activity against wheat powdery mildew in vivo, 6.25 ppm; for pest or weed control at 25 ppm: read-out: protectant activity against wheat powdery mildew in vivo, 25 ppm; for pest or weed control at 100 ppm: read-out: protectant activity against wheat powdery mildew in vivo, 100 ppm; for pest or weed control at 400 ppm: read-out: protectant activity against wheat powdery mildew in vivo, 400 ppm.

A further assay deals with rice blast. In words: microbe, parasite or virus in culture. The assay is classed as cell-based. The conditions noted are these: Pyricularia oryzae; for inhibition at 25 ppm: read-out: inhibition rate against rice blast, 25 ppm, in vitro.
The next assay concerns cucumber gray mold. Nature of the assay: fungicidal activity in vitro (inhibition rate) against cucumber gray mold. The format is cell-based. The following applies: 25 ppm, in vitro; read-out: inhibition rate against cucumber gray mold.
The next assay relates to corn rust. In words: protectant activity in vivo against corn rust. The conditions noted are these: Zea mays, 168 h; for pest or weed control at 6.25 µg/mL: read-out: control effect against corn rust (%), 6.25 mg/L; for pest or weed control at 25 µg/mL: read-out: control effect against corn rust (%), 25 mg/L; for pest or weed control at 100 µg/mL: read-out: control effect against corn rust (%), 100 mg/L; for pest or weed control at 400 µg/mL: read-out: control effect against corn rust (%), 400 mg/L; for pest or weed control at 6.25 ppm: read-out: protectant activity against corn rust in vivo, 6.25 ppm; for pest or weed control at 25 ppm: read-out: protectant activity against corn rust in vivo, 25 ppm; for pest or weed control at 100 ppm: read-out: protectant activity against corn rust in vivo, 100 ppm; for pest or weed control at 400 ppm: read-out: protectant activity against corn rust in vivo, 400 ppm.

The next assay relates to armyworm. In words: bioactivity test against armyworm, airbrush spray. The assay is classed as in vivo. The following applies: 72 h; for pest or weed control at 600 µg/mL: 600 mg/L; for pest or weed control at 600 ppm: mortality after 72 h.
Another assay concerns Diamond back moth. In words: insecticidal activity against diamond back moth, airbrush spray. The assay is classed as in vivo. The conditions noted are these: 72 h; for pest or weed control at 600 µg/mL: 600 mg/L. In short, it runs like this:
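Airbrush leaf-disc spray test: both faces of 2 cm cabbage discs received 0.5 ml of test solution at 0.7 kg/cm^2. Solutions were made in acetone:methanol (1:1) and brought to concentration with 0.1% Tween 80 in water. Ten second-instar larvae per disc, triplicates, were held at 25° C and 60˜70% R.H., with mortality recorded at 72 hrs.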

In the next assay the test system is carmine spider mite. Nature of the assay: bioactivity test against carmine spider mite, airbrush spray. The format is in vivo. The following applies: Tetranychus cinnabarinus, 72 h; for pest or weed control at 600 µg/mL: 600 mg/L, contrastive test, read-out: Insecticidal activity against carmine spider mite (% ). In short, it runs like this:
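Broadbean seedlings infested with adult mites were sprayed with compound (acetone/methanol stock diluted in 0.1% Tween 80 water) by airbrush at 0.7 kg/cm^2, 0.5 ml. Three replicates were run. Mortality was scored after 72 hrs.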

Assay [1] relates to Green peach aphids (Myzus Persicae Sulzer). Nature of the assay: bioactivity test against green peach aphid, airbrush foliar spray. The following applies: Myzus persicae, foliar, 48 h; for pest or weed control at 10 µg/mL: 10 mg/L; for pest or weed control at 10 µg/mL / pest or weed control at 100 µg/mL / pest or weed control at 600 µg/mL: contrastive test, read-out: Insecticidal activity against peach aphid (%); for pest or weed control at 100 µg/mL: 100 mg/L; for pest or weed control at 600 µg/mL: 600 mg/L. The format is in vivo. The method, boiled down: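 Aphids (15-30 per cabbage leaf disc) on moist filter paper were airbrush-sprayed at 10 psi, 0.5 mL, with compound from acetone:methanol (1:1) diluted in water with 0.1% tween 80. Held at 25±1 C, 60±5% RH; survivors counted after 48 hrs to give death rates.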

Where [2] appears, read: read-out: Insecticidal activity against armyworm (%).

From patent US9770026B2, “Substituted pyrimidine compound and uses thereof” (Shenyang Sinochem Agrochemicals R&D Co., Ltd., priority 2012, dated 2017) come the findings set out here.

As usually defined, the inhibition is the relative decrease from the control value, in per cent.

Turning to `CC(F)c1ncnc(NCCc2ccc(Oc3ccc(C(F)(F)F)cc3)cc2)c1Cl` (stereo not drawn) [CK1, reference compound], the pest or weed control at 3.125 µg/mL in the assay with cucumber downy mildew (read-out: control effect against cucumber downy mildew (%), 3.125 mg/L, protectant activity) was determined as 20%. Moreover, the pest or weed control at 6.25 µg/mL worked out at 30% in the assay on cucumber downy mildew (read-out: control effect against cucumber downy mildew (%), 6.25 mg/L, protectant activity) and 80% in the assay on wheat powdery mildew. Also, the pest or weed control at 12.5 µg/mL in the assay with cucumber downy mildew (read-out: control effect against cucumber downy mildew (%), 12.5 mg/L, protectant activity) came out at 50%. The pest or weed control at 25 µg/mL with cucumber downy mildew (read-out: control effect against cucumber downy mildew (%), 25 mg/L, protectant activity) came to 100%; in the assay with wheat powdery mildew, 100%. Further, in the assay with cucumber downy mildew (read-out: control effect against cucumber downy mildew (%), 50 mg/L, protectant activity), the pest or weed control at 50 µg/mL was determined as 100%. The pest or weed control at 100 µg/mL in the assay with cucumber downy mildew (read-out: control effect against cucumber downy mildew (%), 100 mg/L, protectant activity) is 100%; in the assay on wheat powdery mildew, 100%. The pest or weed control at 400 µg/mL in the assay on cucumber downy mildew (protectant activity) and in the assay on wheat powdery mildew was 100% in each case. Besides, the inhibition at 25 ppm in the assay with rice blast and in the assay on cucumber gray mold was 0% each time.
Regarding `CCc1ncnc(NC(C)c2ccc(Oc3ccc(C(F)(F)F)cc3)cc2)c1Cl` (stereo not drawn) [CK47, reference compound], in the assay on corn rust (protectant activity), the pest or weed control at 6.25 µg/mL came to 0%, the pest or weed control at 25 µg/mL stood at 0%, the pest or weed control at 100 µg/mL came to 30% and the pest or weed control at 400 µg/mL was determined as 80%. Also, the pest or weed control at 10 µg/mL with armyworm (10 mg/L, read-out: Insecticidal activity against armyworm (%)) turned out to be 0%. The pest or weed control at 100 µg/mL in the assay on armyworm (100 mg/L, read-out: Insecticidal activity against armyworm (%)) came to 25%. Moreover, the pest or weed control at 600 µg/mL with armyworm (setting [2]) came out at 86%. Further, in the assay on rice blast (read-out: inhibition rate against rice blast, 8.3 ppm, in vitro), the inhibition at 8.3 ppm was 0%. Also, the inhibition at 25 ppm with rice blast is below 50%. Also, the inhibition at 25 ppm in the assay on cucumber gray mold was 0%.
For the compound `COC(=O)c1ccc(Oc2ccc(CCNc3cc(Cl)nc(C)n3)cc2)nc1` [CK79, reference compound], the pest or weed control at 600 µg/mL in the assay on Diamond back moth worked out at 0%; with carmine spider mite, 27%; in [1], 100%; in the assay on armyworm (setting [2]) it was 0%. The pest or weed control at 10 µg/mL in assay [1] turned out to be 0%. In addition, in [1], the pest or weed control at 100 µg/mL turned out to be 16%. Moreover, the pest or weed control at 400 µg/mL with corn rust (protectant activity) was found to be 0%; with cucumber downy mildew (protectant activity) it was 85%; in the assay with wheat powdery mildew it was 0%. Besides, the inhibition at 25 ppm with cucumber gray mold worked out at 0%.
With `FC(F)(F)c1cccnc1Oc1ccc(CCNc2cc(Cl)ncn2)cc1` [CK80, reference compound], the pest or weed control at 600 µg/mL in the assay with Diamond back moth was found to be 0%; in the assay with carmine spider mite, 6%; in assay [1], 87%; with armyworm (setting [2]), 0%. Further, the pest or weed control at 10 µg/mL in assay [1] is 16%. The pest or weed control at 100 µg/mL in assay [1] came to 40%; in the assay with corn rust (protectant activity), 85%; in the assay with wheat powdery mildew it was 80%. For the same compound, the pest or weed control at 6.25 µg/mL with corn rust (protectant activity) and in the assay on wheat powdery mildew was 0% throughout. In addition, the values for the pest or weed control at 25 µg/mL in the assay with corn rust (protectant activity) and in the assay with wheat powdery mildew were 20% and 0%, respectively. The pest or weed control at 400 µg/mL with corn rust (protectant activity) is 100%; with cucumber downy mildew (protectant activity), 85%; in the assay on wheat powdery mildew it was 100%. The inhibition at 25 ppm in the assay with cucumber gray mold turned out to be 0%.
Consider `FC(F)c1ncnc(NCCc2ccc(Oc3ccc(C(F)(F)F)cn3)cc2)c1Cl` [Compound I-2342], for which, in the assay with carmine spider mite (100 ppm, mortality after 72 hrs), the pest or weed control at 100 ppm is 100%. The pest or weed control at 600 ppm in the assay with carmine spider mite (mortality after 72 hrs) is 100%. In addition, the pest or weed control at 10 ppm in assay [1] (10 ppm, death rate after 48 hrs) stood at 100%. Further, in assay [1] (death rate after 48 hrs), the pest or weed control at 100 ppm was found to be 100% and the pest or weed control at 600 ppm turned out to be 100%. In the assay with corn rust, the pest or weed control at 6.25 ppm was 100%, the pest or weed control at 25 ppm is 100%, the pest or weed control at 100 ppm amounted to 100% and the pest or weed control at 400 ppm was determined as 100%. In the assay on wheat powdery mildew, the pest or weed control at 0.4 µg/mL worked out at 60%, the pest or weed control at 1.6 µg/mL was found to be 95%, the pest or weed control at 6.25 µg/mL is 100% and the pest or weed control at 25 µg/mL was determined as 100%. In addition, in the assay on wheat powdery mildew, the pest or weed control at 100 µg/mL worked out at 100%, the pest or weed control at 400 µg/mL is 100%, the pest or weed control at 6.25 ppm was 100% and the pest or weed control at 25 ppm stood at 100%. In the assay with wheat powdery mildew, the pest or weed control at 100 ppm came out at 100% and the pest or weed control at 400 ppm was found to be 100%. Moreover, in the assay with armyworm, the pest or weed control at 600 ppm was found to be 100%. Also, the inhibition at 25 ppm with rice blast lay within 80 to 99%. In addition, the inhibition at 25 ppm with cucumber gray mold amounted to 100%.
On to `CCc1ncnc(NCCc2ccc(Oc3cc(Cl)cc(Cl)c3)cc2)c1Cl` [II-303], for which the pest or weed control at 600 ppm with Diamond back moth (600 ppm, mortality after 72 hrs, read-out: control (test results against diamond back moth)) fell in the range of 80 to 99%. For the same compound, the pest or weed control at 600 ppm with carmine spider mite (mortality after 72 hrs) turned out to be 100%. In [1] (death rate after 48 hrs), this compound yielded a pest or weed control at 100 ppm of 100% and a pest or weed control at 600 ppm of 100%. For the same compound, in the assay with corn rust (read-out: control effect against corn rust (%), 0.4 mg/L, protectant activity), the pest or weed control at 0.4 µg/mL was 50%. Besides, the pest or weed control at 1.6 µg/mL with corn rust (read-out: control effect against corn rust (%), 1.6 mg/L, protectant activity) was found to be 80%. Moreover, in the assay on corn rust (protectant activity), the pest or weed control at 6.25 µg/mL stood at 100%, the pest or weed control at 25 µg/mL was 100%, the pest or weed control at 100 µg/mL came to 100% and the pest or weed control at 400 µg/mL came out at 100%. Moreover, in the assay with corn rust, the pest or weed control at 6.25 ppm amounted to 100%, the pest or weed control at 25 ppm was 100%, the pest or weed control at 100 ppm amounted to 100% and the pest or weed control at 400 ppm was 100%. The pest or weed control at 100 ppm in the assay on cucumber downy mildew (read-out: protectant activity against cucumber downy mildew in vivo, 100 ppm) was in the range of 80 to 99%. In the assay on cucumber downy mildew (read-out: protectant activity against cucumber downy mildew in vivo, 400 ppm), the pest or weed control at 400 ppm was 100%. Further, in the assay on wheat powdery mildew, the pest or weed control at 0.4 µg/mL was found to be 25%, the pest or weed control at 1.6 µg/mL is 80%, the pest or weed control at 6.25 µg/mL worked out at 90% and the pest or weed control at 25 µg/mL is 100%. Further, in the assay with wheat powdery mildew, the pest or weed control at 100 µg/mL amounted to 100%, the pest or weed control at 400 µg/mL turned out to be 100%, the pest or weed control at 6.25 ppm lay within 80 to 99% and the pest or weed control at 25 ppm came to 100%. In addition, in the assay with wheat powdery mildew, the pest or weed control at 100 ppm is 100% and the pest or weed control at 400 ppm was 100%. Also, the pest or weed control at 600 ppm with armyworm was in the range of 80 to 99%. In the assay with cucumber gray mold, the inhibition at 25 ppm is 100%.
